Data taken from patent US8003660B2, “Modulators of muscarinic receptors” (Vertex Pharmaceuticals Incorporated, priority 2006, dated 2011).

What was measured:
Format in all cases: cell-based
[1] = biological target: T1, M1 muscarinic receptor (Homo sapiens, UniProt P11229); test: Functional mobilization of intracellular calcium (FLIPR) in CHO cells expressing M1; settings: for EC50: CHO cells expressing M1, FLIPR calcium; for Emax: CHO, 100% = maximum response obtained with the Carbachol control, read-out: M1 Efficacy
T1 construct: expressed in transfected cells; host or cells: CHO (M1-CHO)
T1 sequence (P11229 1-460): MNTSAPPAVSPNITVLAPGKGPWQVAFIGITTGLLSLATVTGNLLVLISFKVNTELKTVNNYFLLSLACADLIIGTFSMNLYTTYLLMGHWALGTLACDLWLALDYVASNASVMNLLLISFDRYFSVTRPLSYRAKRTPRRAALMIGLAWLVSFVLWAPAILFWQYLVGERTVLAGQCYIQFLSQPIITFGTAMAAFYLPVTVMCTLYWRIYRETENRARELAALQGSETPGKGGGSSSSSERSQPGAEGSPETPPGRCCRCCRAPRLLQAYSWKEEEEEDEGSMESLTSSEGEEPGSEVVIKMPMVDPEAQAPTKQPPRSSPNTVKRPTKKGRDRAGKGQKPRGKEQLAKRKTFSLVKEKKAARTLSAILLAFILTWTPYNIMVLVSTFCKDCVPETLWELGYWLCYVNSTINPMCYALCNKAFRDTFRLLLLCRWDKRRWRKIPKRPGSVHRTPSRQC
Method in brief: (§1)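 Calcium flux is read on FLIPR over 60 sec at 488/540 nm in muscarinic-receptor CHO lines. Antagonist mode adds carbachol at EC80 after 15 min compound preincubation or with simultaneous co-application. Agonist mode adds compound alone. Cells carry Fluo-3 or Calcium 3 dye in probenecid-containing pH 7.4 buffer, 0.5% DMSO final.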

[2] = biological target: T2, M2 muscarinic receptor (Homo sapiens, UniProt P08172); test: Functional mobilization of intracellular calcium (FLIPR) in CHO cells expressing M2; settings: for EC50: CHO cells expressing M2, FLIPR calcium; for Emax: CHO, 100% = maximum response obtained with the Carbachol control, read-out: M2 Efficacy
T2 construct: expressed in transfected cells; host or cells: CHO (M2-CHO)
T2 sequence (P08172 1-466): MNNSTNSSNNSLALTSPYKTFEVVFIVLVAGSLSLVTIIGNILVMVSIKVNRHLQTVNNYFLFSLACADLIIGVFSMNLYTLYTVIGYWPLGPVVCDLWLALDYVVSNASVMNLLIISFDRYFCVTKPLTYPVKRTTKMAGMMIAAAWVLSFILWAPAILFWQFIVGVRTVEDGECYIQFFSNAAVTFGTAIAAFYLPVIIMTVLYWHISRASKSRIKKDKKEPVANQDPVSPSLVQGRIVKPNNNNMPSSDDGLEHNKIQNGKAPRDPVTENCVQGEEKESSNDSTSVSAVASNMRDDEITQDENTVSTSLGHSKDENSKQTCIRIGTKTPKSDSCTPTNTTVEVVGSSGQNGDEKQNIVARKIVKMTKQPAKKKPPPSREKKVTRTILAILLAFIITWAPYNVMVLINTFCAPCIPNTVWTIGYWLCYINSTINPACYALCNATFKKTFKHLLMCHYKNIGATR
Method in brief: as §1

[3] = biological target: T3, M3 muscarinic receptor (Homo sapiens, UniProt P20309); test: Functional mobilization of intracellular calcium (FLIPR) in CHO cells expressing M3; settings: for EC50: CHO cells expressing M3, FLIPR calcium; for Emax: CHO, 100% = maximum response obtained with the Carbachol control, read-out: M3 Efficacy
T3 construct: expressed in transfected cells; host or cells: CHO (M3-CHO)
T3 sequence (P20309 whole entry): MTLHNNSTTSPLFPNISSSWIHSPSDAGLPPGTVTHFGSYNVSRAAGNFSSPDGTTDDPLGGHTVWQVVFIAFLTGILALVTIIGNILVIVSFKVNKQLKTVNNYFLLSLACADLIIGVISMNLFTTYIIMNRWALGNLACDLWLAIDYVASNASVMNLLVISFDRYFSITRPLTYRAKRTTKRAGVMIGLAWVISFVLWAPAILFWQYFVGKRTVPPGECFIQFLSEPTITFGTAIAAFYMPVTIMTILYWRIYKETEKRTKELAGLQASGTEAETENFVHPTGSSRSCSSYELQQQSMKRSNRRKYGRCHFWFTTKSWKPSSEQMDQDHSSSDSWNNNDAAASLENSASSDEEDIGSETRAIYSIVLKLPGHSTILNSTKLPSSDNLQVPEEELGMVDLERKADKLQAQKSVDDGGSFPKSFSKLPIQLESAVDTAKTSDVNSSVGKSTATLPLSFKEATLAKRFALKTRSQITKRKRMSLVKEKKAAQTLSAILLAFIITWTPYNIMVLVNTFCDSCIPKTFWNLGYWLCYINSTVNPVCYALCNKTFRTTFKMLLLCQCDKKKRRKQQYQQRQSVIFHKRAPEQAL
Method in brief: as §1

[4] = biological target: T4, M4 muscarinic receptor (Homo sapiens, UniProt P08173); test: Functional mobilization of intracellular calcium (FLIPR) in CHO cells expressing M4; settings: for EC50: CHO cells expressing M4, FLIPR calcium; for Emax: CHO, 100% = maximum response obtained with the Carbachol control, read-out: M4 Efficacy
T4 construct: expressed in transfected cells; host or cells: CHO (M4-CHO)
T4 sequence (P08173 1-479): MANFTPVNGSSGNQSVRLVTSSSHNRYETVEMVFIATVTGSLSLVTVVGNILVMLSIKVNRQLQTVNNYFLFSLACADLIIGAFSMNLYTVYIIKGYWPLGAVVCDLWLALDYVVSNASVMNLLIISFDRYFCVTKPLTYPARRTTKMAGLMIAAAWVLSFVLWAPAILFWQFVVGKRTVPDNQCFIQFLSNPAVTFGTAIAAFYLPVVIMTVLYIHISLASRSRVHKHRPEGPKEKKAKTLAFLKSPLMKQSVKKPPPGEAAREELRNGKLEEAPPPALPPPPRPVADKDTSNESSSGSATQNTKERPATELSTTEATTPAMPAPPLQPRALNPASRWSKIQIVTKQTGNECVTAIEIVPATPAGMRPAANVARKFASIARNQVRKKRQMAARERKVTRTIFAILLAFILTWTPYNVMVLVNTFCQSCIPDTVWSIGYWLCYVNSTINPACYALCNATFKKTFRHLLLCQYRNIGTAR
Method in brief: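 Recombinant CHO cells loaded with Fluo-3 AM or Calcium 3 dye in pH 7.4 buffer containing 1 mM probenecid, with 0.5% final DMSO. For agonism, compound is added directly. For inhibition, it is preincubated 15 min, or co-applied, before carbachol at EC80. FLIPR fluorescence (ex 488, em 540 nm) is recorded for 60 s.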

Question: What does the source list for `CC(C)(C)CCN1CCC2(CC[C@H](NC(=O)C3CCN(C(=O)c4ccccc4)CC3)c3ccccc32)CC1` [compound 36]?
Answer: EC50 [1]: < 2 µM; Emax [1]: 25 to 100%; EC50 [2]: > 5 µM; Emax [2]: < 25%; EC50 [3]: > 5 µM; Emax [3]: < 25%; EC50 [4]: < 2 µM; Emax [4]: 25 to 100%

Question: Which EC50 [1] does the source give for `CC(C)(C)CCN1CCC2(CCCc3ccccc32)CC1` [compound 37] here?
Answer: The EC50 was 2 to 5 µM.

Question: And the Emax [1]?
Answer: The Emax was 25 to 100%.

Question: And the EC50 [2]?
Answer: The EC50 was 2 to 5 µM.

Question: What about the Emax [2] of the same compound?
Answer: The Emax was 25 to 100%.

Question: What about the EC50 [3] of the same compound?
Answer: Its EC50 is > 5 µM.

Question: And the Emax [3]?
Answer: The Emax was < 25%.

Question: What about the EC50 [4] of the same compound?
Answer: The EC50 was < 2 µM.

Question: What about the Emax [4] of the same compound?
Answer: The Emax was 25 to 100%.

Question: What does the source list for `C[C@H](C(=O)N[C@H]1CCC2(CCN(CCC(C)(C)C)CC2)c2ccccc21)N1CCCCC1=O` [compound 38]?
Answer: EC50 [1]: < 2 µM; Emax [1]: 25 to 100%; EC50 [2]: > 5 µM; Emax [2]: < 25%; EC50 [3]: > 5 µM; Emax [3]: < 25%; EC50 [4]: < 2 µM; Emax [4]: 25 to 100%

Question: Which EC50 [1] does the source give for `CCN(C(=O)C1CCCO1)[C@H]1CCC2(CCN(CCC(C)(C)C)CC2)c2ccccc21` (some centres unmarked) [compound 39] here?
Answer: The EC50 was > 5 µM.

Question: And the Emax [1]?
Answer: Its Emax is 25 to 100%.

Question: What about the EC50 [2] of the same compound?
Answer: The EC50 was > 5 µM.

Question: What about the Emax [2] of the same compound?
Answer: The Emax was < 25%.

Question: And the EC50 [3]?
Answer: The EC50 was > 5 µM.

Question: And the Emax [3]?
Answer: The Emax was < 25%.

Question: And the EC50 [4]?
Answer: The EC50 was < 2 µM.

Question: What about the Emax [4] of the same compound?
Answer: Its Emax is 25 to 100%.

Question: What does the source list for `Cc1cc(C(=O)N[C@@H]2CCC3(CCN(CCC(C)(C)C)CC3)c3cc(F)ccc32)nn1C` [compound 40]?
Answer: EC50 [1]: < 2 µM; Emax [1]: 25 to 100%; EC50 [2]: < 2 µM; Emax [2]: 25 to 100%; EC50 [3]: > 5 µM; Emax [3]: < 25%; EC50 [4]: < 2 µM; Emax [4]: 25 to 100%

Question: `CC(=O)N1CCCCC1C(=O)N[C@H]1CCC2(CCN(CCC(C)(C)C)CC2)c2ccccc21` (some centres unmarked) [compound 41] was tested. Which EC50 [1] did it give?
Answer: Its EC50 is < 2 µM.

Question: What about the Emax [1] of the same compound?
Answer: Its Emax is 25 to 100%.

Question: What about the EC50 [2] of the same compound?
Answer: The EC50 was > 5 µM.

Question: What about the Emax [2] of the same compound?
Answer: Its Emax is < 25%.

Question: And the EC50 [3]?
Answer: Its EC50 is > 5 µM.

Question: What about the Emax [3] of the same compound?
Answer: The Emax was < 25%.

Question: And the EC50 [4]?
Answer: Its EC50 is < 2 µM.

Question: What about the Emax [4] of the same compound?
Answer: The Emax was 25 to 100%.

Question: With `CCN(C(=O)CC(C)(C)O)[C@H]1CCC2(CCN(CCC(C)(C)C)CC2)c2ccccc21` [compound 42] as the compound, how does the EC50 [1] read?
Answer: Its EC50 is 2 to 5 µM.

Question: What about the Emax [1] of the same compound?
Answer: Its Emax is 25 to 100%.

Question: And the EC50 [2]?
Answer: Its EC50 is > 5 µM.

Question: And the Emax [2]?
Answer: Its Emax is < 25%.

Question: What about the EC50 [3] of the same compound?
Answer: Its EC50 is > 5 µM.

Question: What about the Emax [3] of the same compound?
Answer: The Emax was < 25%.

Question: And the EC50 [4]?
Answer: Its EC50 is < 2 µM.

Question: What about the Emax [4] of the same compound?
Answer: The Emax was 25 to 100%.

Question: For `CC#CCN(C(C)=O)[C@H]1CCC2(CCN(CCC(C)(C)C)CC2)c2ccccc21` [compound 43], which EC50 [1] is on record?
Answer: The EC50 was < 2 µM.

Question: And the Emax [1]?
Answer: The Emax was 25 to 100%.

Question: And the EC50 [2]?
Answer: Its EC50 is < 2 µM.

Question: And the Emax [2]?
Answer: The Emax was 25 to 100%.

Question: And the EC50 [3]?
Answer: Its EC50 is > 5 µM.

Question: What about the Emax [3] of the same compound?
Answer: The Emax was < 25%.

Question: And the EC50 [4]?
Answer: Its EC50 is < 2 µM.

Question: What about the Emax [4] of the same compound?
Answer: The Emax was 25 to 100%.

Question: For `CCN(C(=O)C1CCC(=O)C1)[C@H]1CCC2(CCN(CCC(C)(C)C)CC2)c2ccccc21` (some centres unmarked) [compound 44], which EC50 [1] is on record?
Answer: The EC50 was 2 to 5 µM.

Question: What about the Emax [1] of the same compound?
Answer: Its Emax is 25 to 100%.

Question: And the EC50 [2]?
Answer: The EC50 was > 5 µM.

Question: What about the Emax [2] of the same compound?
Answer: The Emax was < 25%.

Question: And the EC50 [3]?
Answer: The EC50 was > 5 µM.

Question: And the Emax [3]?
Answer: The Emax was < 25%.

Question: What about the EC50 [4] of the same compound?
Answer: The EC50 was < 2 µM.

Question: What about the Emax [4] of the same compound?
Answer: Its Emax is 25 to 100%.

Question: What does the source list for `CC(=O)N[C@H]1CCC2(CCN(CCC(C)CC(C)(C)C)CC2)c2ccccc21` (some centres unmarked) [compound 45]?
Answer: EC50 [1]: < 2 µM; Emax [1]: 25 to 100%; EC50 [2]: 2 to 5 µM; Emax [2]: < 25%; EC50 [3]: > 5 µM; Emax [3]: 25 to 100%; EC50 [4]: > 5 µM; Emax [4]: < 25%

Question: Which results are given for `CC(=O)N[C@H](C)C(=O)N[C@H]1CCC2(CCN(CCC(C)(C)C)CC2)c2cc(F)ccc21` [compound 46]?
Answer: EC50 [1]: < 2 µM; Emax [1]: 25 to 100%; EC50 [2]: < 2 µM; Emax [2]: 25 to 100%; EC50 [3]: > 5 µM; Emax [3]: < 25%; EC50 [4]: < 2 µM; Emax [4]: 25 to 100%

Question: With `CC(=O)N(C(C)C)[C@H]1CCC2(CCN(CCC(C)C)CC2)c2ccccc21` [compound 47] as the compound, how does the EC50 [1] read?
Answer: Its EC50 is 2 to 5 µM.

Question: And the Emax [1]?
Answer: The Emax was 25 to 100%.

Question: And the EC50 [2]?
Answer: Its EC50 is > 5 µM.

Question: What about the Emax [2] of the same compound?
Answer: The Emax was < 25%.

Question: And the EC50 [3]?
Answer: Its EC50 is > 5 µM.

Question: And the Emax [3]?
Answer: The Emax was < 25%.

Question: What about the EC50 [4] of the same compound?
Answer: Its EC50 is 2 to 5 µM.

Question: And the Emax [4]?
Answer: The Emax was 25 to 100%.

Question: How did the EC50 [1] turn out when `CCCC(CCC)N1CCC2(CC[C@H](NC(=O)C3CC3)c3ccccc32)CC1` [compound 48] was run?
Answer: Its EC50 is > 5 µM.

Question: What about the Emax [1] of the same compound?
Answer: The Emax was < 25%.

Question: What about the EC50 [2] of the same compound?
Answer: Its EC50 is > 5 µM.

Question: What about the Emax [2] of the same compound?
Answer: Its Emax is < 25%.

Question: What about the EC50 [3] of the same compound?
Answer: The EC50 was > 5 µM.

Question: And the Emax [3]?
Answer: Its Emax is < 25%.

Question: And the EC50 [4]?
Answer: Its EC50 is > 5 µM.

Question: What about the Emax [4] of the same compound?
Answer: Its Emax is < 25%.
